Key:
FXR receptor = target: T1, FXR receptor (Homo sapiens, UniProt Q96RI1); experiment: In vitro FXR activity, PathHunter enzyme fragment complementation assay in CHO cells; type: cell-based; settings: for EC50: CHO PathHunter cells, ten-point dose curve, chemiluminescence; for Emax: CHO, read-out: Max Response (%)
T1 construct: beta-galactosidase enzyme fragment (EFC/PathHunter); expressed in transfected cells; host or cells: Chinese Hamster Ovary (CHO) cells, stably transfected, clonally derived
T1 sequence (Q96RI1 1-486): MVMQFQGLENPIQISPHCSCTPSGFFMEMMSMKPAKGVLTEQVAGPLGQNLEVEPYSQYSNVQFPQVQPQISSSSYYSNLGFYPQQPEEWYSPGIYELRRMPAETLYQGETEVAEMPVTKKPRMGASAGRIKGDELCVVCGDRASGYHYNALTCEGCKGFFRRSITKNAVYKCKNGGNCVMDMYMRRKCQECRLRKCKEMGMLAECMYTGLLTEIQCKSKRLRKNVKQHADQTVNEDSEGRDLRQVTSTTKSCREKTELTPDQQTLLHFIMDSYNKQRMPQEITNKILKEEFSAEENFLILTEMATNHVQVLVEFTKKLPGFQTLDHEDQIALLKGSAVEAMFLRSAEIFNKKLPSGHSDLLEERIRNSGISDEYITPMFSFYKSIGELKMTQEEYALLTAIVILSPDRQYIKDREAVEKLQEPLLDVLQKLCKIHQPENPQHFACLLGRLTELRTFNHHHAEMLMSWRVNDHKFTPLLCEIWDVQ
Protocol: Cells were seeded in cell plating reagent in a total volume of 20 μL into 384-well microplates and incubated at 37° C., 5% CO2 humidified incubator for 24 or 48 hours prior to testing. FXR agonists were dissolved in DMSO (dimethyl sulfoxide). Ligands were subsequently diluted in the cell plating reagent to make up desired concentration stock solution. Ten-point dose curve serial dilutions were prepared in cell plating reagent. 5 μL of 5× sample was added to cells and incubated at 37° C. or room temperature for 3-16 hours. Final assay vehicle concentration was 1%. Chemiluminescent signals were generated through addition of 12.5 μL or 15 μL of detection reagent cocktail ([…]), followed by incubation at room temperature for 1 hour. Microplates were read for signal generation using a PerkinElmer Envision instrument to detect chemiluminescence. The percentage activity was calculated using the following formula: % Activity=100%×(mean RLU of test sample−mean RLU of vehicle control)/(mean MAX control ligand−mean RLU of vehicle control).

diet-induced NASH mice [1] = experiment: Example 7: diet-induced (GAN diet) NASH mice, Compound 2, FXR agonists and combinations; type: in vivo; settings: for plasma TG levels compared to vehicle: day 21, FIG. 11; for total liver triglycerides compared to tropifexor: day 21, FIG. 12; for plasma insulin levels compared to vehicle alone and to Compound 2 / plasma insulin level, significance compared to vehicle: study day 21, FIG. 9; for plasma ALT level compared to vehicle alone / plasma ALT levels compared to tropifexor: study day 21, FIG. 10; for blood glucose level compared to vehicle: FIG. 6; for liver TG levels at the termination of the study: FIG. 8; for plasma triglyceride (TG) levels: as early as seven days, FIG. 7; for relative terminal body weight compared to vehicle: study day 21, FIG. 5
Protocol: NASH was induced in mice by feeding mice a Gubra amylin NASH (GAN) diet as described in Boland et al. World J Gastroenterol. 2019, 25(33): 4904-4920. One week prior to administration of a first dose of compounds, the mice were weighed and randomized, and their food intake was measured. Mice were randomly assigned to dosing groups, with 12 mice per group. Assigned dosages included the following; Compound 2 (10 mg/kg); tropifexor (0.3 mg/kg); Compound 2 (10 mg/kg)+tropifexor (0.3 mg/kg); Compound II-1 (10 mg/kg); Compound 2 (10 mg/kg)+Compound II-1 (30 mg/kg); Compound II-2 (10 mg/kg); and Compound 2 (10 mg/kg)+Compound II-2 (30 mg/kg). One group was mock treated with vehicle only as a control. Dosage of Compound II-1 and Compound II-2 were titrated over 6 days, with a dosage of 3 mg/kg administered on days 0, 1 and 2 and a dosage of 10 mg/kg administered on days 3, 4, and 5. Absolute and relative body weight of the mice were recorded daily.
(§1) Fed blood glucose and fed plasma levels of alanine transaminase (ALT) aspartate transaminase (AST), triglycerides (TG), and total cholesterol (TC) were measured at days 7, 14, 21.
(§2) After 3 weeks, animals were sacrificed. Plasma enzymes (P-ALT (alanine aminotransferase) and P-AST (aspartate aminotransferase)), total plasma triglycerides, and total plasma cholesterol were measured, and terminal necropsy of each liver was carried out, determining relative liver weight as a percentage of body weight, assaying total liver biochemistry including total liver triglycerides, plasma insulin and total liver cholesterol, as well as histological evaluation of total liver hydroxyproline, and steatosis. Tissue samples were preserved for characterization using RNAseq.

diet-induced NASH mice [2] = experiment: Example 6: diet-induced (GAN diet) NASH mice, FXR agonists alone; type: in vivo; settings: 10 mg/kg; for blood glucose level compared to vehicle: FIG. 2; for plasma triglyceride (TG) levels compared to vehicle: as early as seven days, FIG. 3; for total liver triglycerides: over the course of the study, FIG. 4; for relative terminal body weight compared to vehicle: study day 21, FIG. 1; for liver TG lowering compared to tropifexor: II-1 p<0.05, II-2 p<0.01
Protocol: NASH was induced in mice by feeding mice a Gubra amylin NASH (GAN) diet as described in Boland et al. World J Gastroenterol. 2019, 25(33): 4904-4920. One week prior to administration of a first dose of compounds, the mice were weighed and randomized, and their food intake was measured. Mice were randomly assigned to dosing groups, with 12 mice per group. Assigned dosages were: Compound II-1 (10 mg/kg); Compound II-2 (10 mg/kg) One group was mock treated with vehicle only as a control. Dosage of Compound II-1 and Compound II-2 were titrated over 3 days, with a dosage of 3 mg/kg administered on days 0, 1 and 2. Dosage of tropifexor was titrated over 2 days, with a dosage of 0.1 mg/kg administered on days 0 and 1. Absolute and relative body weight of the mice were recorded daily.
as §1
as §2, with “8” for “3”

[3] = % Activity relative to MAX control ligand

Max Response (%) (FXR receptor; [3])	SMILES	EC50 (FXR receptor) [nM]	Emax (FXR receptor; [3]) [%]	plasma TG levels compared to vehicle (diet-induced NASH mice [1])	total liver triglycerides compared to tropifexor (diet-induced NASH mice [1])	plasma insulin levels compared to vehicle alone and to Compound 2 (diet-induced NASH mice [1])	plasma ALT level compared to vehicle alone (diet-induced NASH mice [1])	plasma ALT levels compared to tropifexor (diet-induced NASH mice [1])	blood glucose level compared to vehicle (diet-induced NASH mice [1])	liver TG levels at the termination of the study (diet-induced NASH mice [1])	plasma triglyceride (TG) levels (diet-induced NASH mice [1])	relative terminal body weight compared to vehicle (diet-induced NASH mice [1])	plasma insulin level, significance compared to vehicle (diet-induced NASH mice [1])	blood glucose level compared to vehicle (diet-induced NASH mice [2])	plasma triglyceride (TG) levels compared to vehicle (diet-induced NASH mice [2])	total liver triglycerides (diet-induced NASH mice [2])	relative terminal body weight compared to vehicle (diet-induced NASH mice [2])	liver TG lowering compared to tropifexor (diet-induced NASH mice [2])	plasma TG lowering compared to tropifexor (diet-induced NASH mice [2]; p<0.05)
	Oc1cc(-c2cc(F)c3nc(N4[C@@H]5CC[C@H]4CC(OCc4c(-c6ccccc6OC(F)(F)F)noc4C4CC4)C5)sc3c2)no1 (stereo partly drawn) [Compound II-4, 3-(2-((1R,5S)-3-((5-cyclopropyl-3-(2-(trifluoromethoxy)phenyl)isoxazol-4-yl)methoxy)-8-azabicyclo[3.2.1]octan-8-yl)-4-fluorobenzo[d]thiazol-6-yl)isoxazol-5-ol]	81.1	159	significant reduction of plasma TG levels	reduced total liver triglycerides than tropifexor	lower insulin levels	lower plasma ALT level	lower plasma ALT levels											
	O=P(O)(O)c1cc(F)c2nc(N3[C@@H]4CC[C@H]3CC(OCc3c(-c5ccccc5OC(F)(F)F)noc3C3CC3)C4)sc2c1 (stereo partly drawn) [Compound II-1, (2-((1R,5S)-3-((5-cyclopropyl-3-(2-(trifluoromethoxy)phenyl)isoxazol-4-yl)methoxy)-8-azabicyclo[3.2.1]octan-8-yl)-4-fluorobenzo[d]thiazol-6-yl)phosphonic acid]	2860	52	significant reduction of plasma TG levels	reduced total liver triglycerides than tropifexor	lower insulin levels	lower plasma ALT level	lower plasma ALT levels	lower blood glucose level	lowered liver TG levels	significantly reduced	lower relative terminal body weight	statistically significant reduction of plasma insulin level	lower blood glucose level	significantly reduced	similarly decreased	lower relative terminal body weight	greater efficacy in lowering liver TG levels	
	Cc1cc(OCP2(=O)OCC[C@@H](c3cccc(Cl)c3)O2)cc(C)c1Cc1ccc(O)c(C(C)C)c1 (stereo partly drawn) [Compound 2]								lower blood glucose level	lowered liver TG levels	significantly reduced	lower relative terminal body weight							
90	CP(=O)(O)c1cc(F)c2nc(N3[C@@H]4CC[C@H]3CC(OCc3c(-c5ccccc5OC(F)(F)F)noc3C3CC3)C4)sc2c1 (stereo partly drawn) [Compound II-2]	3080		significant reduction of plasma TG levels	reduced total liver triglycerides than tropifexor	lower insulin levels	lower plasma ALT level	lower plasma ALT levels	lower blood glucose level	lowered liver TG levels	significantly reduced	lower relative terminal body weight	statistically significant reduction of plasma insulin level	lower blood glucose level	significantly reduced	similarly decreased	lower relative terminal body weight	greater efficacy in lowering liver TG levels	greater efficacy in lowering plasma TG levels
	Oc1cc(-c2cc(F)c3nc(N4[C@@H]5CC[C@H]4CC(OCc4c(-c6ccccc6OC(F)(F)F)noc4C4CC4)C5)sc3c2)on1 (stereo partly drawn) [Compound II-3, 5-(2-((1R,5S)-3-((5-cyclopropyl-3-(2-(trifluoromethoxy)phenyl)isoxazol-4-yl)methoxy)-8-azabicyclo[3.2.1]octan-8-yl)-4-fluorobenzo[d]thiazol-6-yl)isoxazol-3-ol]	24.6	151	significant reduction of plasma TG levels	reduced total liver triglycerides than tropifexor	lower insulin levels	lower plasma ALT level	lower plasma ALT levels					statistically significant reduction of plasma insulin level						
